# Experimental data taken from PMC7993394 (Journal of Enzyme Inhibition and Medicinal Chemistry, 2021).
# pIC50: −log10 of the molar value.
# Molecular target: T1, BpHldC (Burkholderia pseudomallei, UniProt Q63XZ4)
# T1 construct: gene BPSL0395
# Experiment: biochemical
# T1 sequence (Q63XZ4 1-161 limits assumed): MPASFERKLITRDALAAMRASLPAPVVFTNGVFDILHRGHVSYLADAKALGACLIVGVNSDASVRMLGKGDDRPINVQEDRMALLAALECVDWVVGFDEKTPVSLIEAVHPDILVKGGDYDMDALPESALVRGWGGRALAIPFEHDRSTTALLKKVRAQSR
row,SMILES,pIC50
1,"CCOC(=O)c1sc(NC(=O)CSc2nnc(Cc3ccccc3)o2)c(C#N)c1C [compound 7929959, ethyl 5-({[(5-benzyl-1,3,4-oxadiazol-2-yl)thio]acetyl}amino)-4-cyano-3-methyl-2-thiophenecarboxylate]",4.96
2,"CCOC(=O)c1sc(NC(=O)CSc2nnc(-c3ccc(Cl)cc3)o2)c(C#N)c1C [compound 7933420, ethyl 5-[({[5–(4-chlorophenyl)-1,3,4-oxadiazol-2-yl]thio}acetyl)amino]-4-cyano-3-methyl-2-thiophene carboxylate]",4.76
3,"CCOC(=O)c1sc(NC(=O)CSc2nnc(-c3ccccc3OCC)o2)c(C#N)c1C [compound 7991890, ethyl 4-cyano-5-[({[5–(2-ethoxyphenyl)-1,3,4-oxadiazol-2-yl]thio}acetyl)amino]-3-methyl-2-thiophenecarboxylate]",4.33
